Data: patent US8354402B2, “Polyarylcarboxamides useful as lipid lowering agents” (Janssen Pharmaceutica N.V., priority 2000, dated 2013)

Key:
[1] = test system: ApoB secretion, HepG2 cells; experiment: Quantification of the secretion of ApoB (HepG2 cells, immunoprecipitation, scintillation counting); assay type: cell-based; details: 24 hours of incubation; for IC50: Homo sapiens, HepG2, 24 h
Procedure, shortened: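 HepG2 cells in MEM Rega 3 with 10% FCS were treated at 70% confluency with compound (DMSO 0.4% final) for 24 h. Medium ApoB was immunoprecipitated with sheep anti-apoB then rabbit anti-sheep antibody (24 h each, 8° C), and pellet radioactivity was counted by liquid scintillation to give IC50.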

MTP = MTP (Homo sapiens, UniProt P55157); experiment: MTP assay (triglyceride transfer from donor to acceptor vesicles); assay type: biochemical; details: MTP activity, 37° C.
Sequence of MTP (P55157 19-894, species assumed): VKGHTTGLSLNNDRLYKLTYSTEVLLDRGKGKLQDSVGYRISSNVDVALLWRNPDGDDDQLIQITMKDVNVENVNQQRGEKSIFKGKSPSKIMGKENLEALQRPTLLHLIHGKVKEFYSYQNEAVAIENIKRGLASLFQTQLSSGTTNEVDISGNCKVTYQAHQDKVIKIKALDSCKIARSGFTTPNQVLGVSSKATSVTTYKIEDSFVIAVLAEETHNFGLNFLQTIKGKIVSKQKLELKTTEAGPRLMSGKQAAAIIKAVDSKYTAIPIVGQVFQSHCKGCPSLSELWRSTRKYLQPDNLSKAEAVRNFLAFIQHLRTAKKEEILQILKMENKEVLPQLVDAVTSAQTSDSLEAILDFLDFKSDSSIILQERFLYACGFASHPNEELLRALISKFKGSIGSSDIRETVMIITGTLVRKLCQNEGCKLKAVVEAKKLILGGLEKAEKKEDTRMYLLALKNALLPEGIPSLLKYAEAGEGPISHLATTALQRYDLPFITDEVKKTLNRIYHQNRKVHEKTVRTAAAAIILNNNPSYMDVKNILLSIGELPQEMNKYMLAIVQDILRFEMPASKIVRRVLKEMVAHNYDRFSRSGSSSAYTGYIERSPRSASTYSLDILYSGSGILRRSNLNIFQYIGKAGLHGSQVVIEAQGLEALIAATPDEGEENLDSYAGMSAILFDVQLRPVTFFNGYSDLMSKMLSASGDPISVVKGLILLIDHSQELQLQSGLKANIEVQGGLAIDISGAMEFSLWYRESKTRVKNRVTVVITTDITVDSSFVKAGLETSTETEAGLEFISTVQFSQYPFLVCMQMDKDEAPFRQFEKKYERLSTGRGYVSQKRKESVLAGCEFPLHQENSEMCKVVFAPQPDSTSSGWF
Sequence of MTP (P07237 18-508 partner, species assumed): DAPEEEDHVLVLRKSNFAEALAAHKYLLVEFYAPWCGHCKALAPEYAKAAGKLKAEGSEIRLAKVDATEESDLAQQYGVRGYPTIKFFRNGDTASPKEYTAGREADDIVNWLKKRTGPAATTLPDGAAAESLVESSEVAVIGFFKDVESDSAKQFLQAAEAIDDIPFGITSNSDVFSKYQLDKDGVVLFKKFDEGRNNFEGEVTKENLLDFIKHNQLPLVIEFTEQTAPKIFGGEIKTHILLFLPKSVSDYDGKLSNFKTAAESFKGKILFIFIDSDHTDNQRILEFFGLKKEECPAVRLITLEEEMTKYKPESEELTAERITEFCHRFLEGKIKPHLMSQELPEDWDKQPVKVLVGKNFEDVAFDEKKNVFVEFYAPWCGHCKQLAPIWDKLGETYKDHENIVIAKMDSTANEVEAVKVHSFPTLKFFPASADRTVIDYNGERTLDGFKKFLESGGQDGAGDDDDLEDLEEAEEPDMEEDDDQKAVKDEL
Description: MTP activity was measured using an assay similar to one described by J. R. Wetterau and D. B. Zilversmit in Chemistry and Physics of Lipids (1985) 38, 205-222. In order to prepare the donor and acceptor vesicles, the appropriate lipids in chloroform were put into a glass test tube and dried under a stream of nitrogen. A buffer containing 15 mM Tris-HCl (pH 7.5), 1 mM ethylenediamine tetra-acetic acid, 40 mM NaCl, 0.02% NaN3 (assay buffer) was added to the dried lipid. The mixture was vortexed briefly and the lipids were then allowed to hydrate for 20 minutes on ice. Vesicles were then prepared by bath sonication (using a Branson 2200 device) at room temperature for at most 15 minutes. Butylated hydroxytoluene was included in all vesicle preparations at a concentration of 0.1%. The lipid transfer assay mixture contained donor vesicles (40 nmole phosphatidylcholine, 7.5 mole % cardiolipin and 0.25 mole % glycerol tri[1-^14C]-oleate), acceptor vesicles (240 nmol phosphatidylcholine) and 5 mg bovine serum albumin in a total volume of 675 μl in a 1.5 ml microcentrifuge tube. Test compounds were added dissolved in dimethylsulfoxide (0.13% final concentration). After 5 minutes of pre-incubation at 37° C., the reaction was started by the addition of MTP in 100 μl of a dialysis buffer. The reaction was stopped by the addition of 400 μl […] (DEAE)-52 cellulose (Sephadex) pre-equilibrated in 15 mM Tris-HCl (pH 7.5), 1 mM ethylenediamine tetra-acetic acid and 0.02% NaN3 (1:1 volume/volume). The mixture was agitated for 4 minutes and centrifuged for 2 minutes at maximum speed in an Eppendorf centrifuge (4° C.) to pellet the DEAE-52-bound donor vesicles. An aliquot of the supernatant containing the acceptor liposomes was counted and the [^14C]-counts were used to calculate the percent triglyceride transfer from donor to acceptor vesicles.
Resulting IC50 values are enumerated in Table C.2 for some of the above-referred compounds.

IC50 (MTP) [nM] | IC50 [1] [nM] | Structure (SMILES) | further results
3.64 | – | COC(=O)C(c1ccccc1)N1CCC(c2ccc(NC(=O)c3ccccc3-c3ccc(C(F)(F)F)cc3)cc2)CC1 (single isomer, unassigned) [Co. No. 230] | pIC50 [1]: 8.31
5.62 | – | CCOC(=O)C(c1ccccc1)N1CCC(c2ccc(NC(=O)c3ccccc3-c3ccc(C(F)(F)F)cc3)cc2)CC1 (single isomer, unassigned) [Co. No. 265] | –
18.4 | 25.6 | O=C(Nc1ccc(N2CCC(C(C(=O)NCc3ccccc3)c3ccccc3)CC2)cc1)c1ccccc1-c1ccccc1 (stereo not drawn) [Co. No. 3] | –
198 | 108 | O=C(Nc1ccc(N2CCC(C(C(=O)NCc3ccccc3)c3ccccc3)CC2)cc1)c1ccccc1CSc1ccccc1 (stereo not drawn) [Co. No. 6] | –
363 | 261 | O=C(Nc1ccc(N2CCC(C(C(=O)NCc3ccccc3)c3ccccc3)CC2)cc1)c1ccccc1COc1ccccc1 (stereo not drawn) [Co. No. 7] | –
> 3000 | 241 | O=C(Nc1ccc(N2CCC(C(C(=O)NCc3ccccc3)c3ccccc3)CC2)cc1)c1ccccc1Cc1ccccc1 (stereo not drawn) [Co. No. 10] | –
208 | 83.8 | CCCNC(=O)C(c1ccccc1)C1CCN(c2ccc(NC(=O)c3ccccc3CSc3ccccc3)cc2)CC1 (stereo not drawn) [Co. No. 16] | –
8.65 | 21.6 | COC(=O)C(c1ccccc1)N1CCC(c2ccc(NC(=O)c3ccccc3-c3ccc(C(F)(F)F)cc3)cc2)CC1 (stereo not drawn) [Co. No. 41, methylphenyl-4-[4-[[[4′-(trifluoromethyl)[1,1′-biphenyl]-2-yl]carbonyl]amino]phenyl]-1-piperidineacetate] | melting point: 138 °C
8.28 | ≤ 30 | O=C(Nc1ccc(N2CCN(C(C(=O)NCc3ccccn3)c3ccccc3)CC2)cc1)c1ccccc1-c1ccc(C(F)(F)F)cc1 (stereo not drawn) [Co. No. 60] | –
8.38 | 11.4 | CCCCCNC(=O)C(c1ccccc1)N1CCC(c2ccc(NC(=O)c3ccccc3-c3ccc(C(F)(F)F)cc3)cc2)CC1 (stereo not drawn) [Co. No. 75] | –
4.63 | – | CCNC(=O)C(c1ccccc1)N1CCN(c2ccc(NC(=O)c3cccc(C)c3-c3ccc(C(F)(F)F)cc3)cc2)CC1 (stereo not drawn) [Co. No. 199] | –
25 | < 30 | COC(=O)C(c1ccccc1)C1CCN(c2ccc(NC(=O)c3ccccc3-c3ccc(C(C)C)cc3)cc2)CC1 (stereo not drawn) [Co. No. 232] | –
1.98 | – | COC(=O)C(c1ccccc1)N1CCN(c2ccc(NC(=O)c3ccccc3-c3ccc(C(F)(F)F)cc3)cc2)CC1 (stereo not drawn) [Co. No. 239] | pIC50 ([1]; listed as 239): 7.855
10.4 | – | COC(=O)C(c1ccccc1)C1CCN(c2ccc(NC(=O)c3ccccc3-c3ccc(C(F)(F)F)cc3)cc2)CC1 (stereo not drawn) [Co. No. 241] | pIC50 ([1]; listed as 241): 7.578
11.5 | – | COC(=O)C(c1ccccc1)C1CCN(c2ccc(NC(=O)c3ccccc3-c3ccc(C(F)(F)F)cc3)cc2)CC1 (stereo not drawn) [Co. No. 242] | pIC50 ([1]; listed as 242): 8.133

The next lines start with the compound.

Structure (SMILES) | IC50 (MTP) [nM] | IC50 [1] [nM] | further results
COC(=O)C(c1ccccc1)N1CCC(c2ccc(NC(=O)c3ccccc3-c3ccc(C(F)(F)F)cc3)cc2)CC1 (single isomer, unassigned) [Co. No. 229] | 52.6 | – | melting point: 158 °C; pIC50 [1]: 7.409
CCOC(=O)C(c1ccccc1)N1CCC(c2ccc(NC(=O)c3ccccc3-c3ccc(C(F)(F)F)cc3)cc2)CC1 (single isomer, unassigned) [Co. No. 264] | 31.8 | – | –
O=C(Nc1ccc(N2CCN(C(C(=O)NCC(F)(F)F)c3ccccc3)CC2)cc1)c1ccccc1-c1ccc(C(F)(F)F)cc1 (stereo not drawn) [Co. No. 1, N-[4-[4-[2-oxo-1-phenyl-2-[(2,2,2-trifluoroethyl)amino]ethyl]-1-piperazinyl]-phenyl]-4′-(trifluoromethyl)-[1,1′-biphenyl]-2-carboxamide] | 13.7 | 7.89 | melting point: 208 °C
O=C(Nc1ccc(N2CCC(C(C(=O)NCc3ccccc3)c3ccccc3)CC2)cc1)c1cccc2c1-c1ccccc1C2 (stereo not drawn) [Co. No. 2] | – | 106 | melting point: 202 °C
O=C(Nc1ccc(N2CCC(C(C(=O)NCc3ccccc3)c3ccccc3)CC2)cc1)c1ccccc1-c1ccc(C(F)(F)F)cc1 (stereo not drawn) [Co. No. 11] | 7.31 | 4.62 | –
COC(=O)C(c1ccccc1)C1CCN(c2ccc(NC(=O)c3ccccc3-c3ccc(C(F)(F)F)cc3)cc2)CC1 (stereo not drawn) [Co. No. 39, methyl α-phenyl-1-[4-[[[4′-(trifluoromethyl)-[1,1′-biphenyl]-2-yl]carbonyl]amino]phenyl]-4-piperidineacetate] | 12 | – | melting point: 151 °C; pIC50 ([1]; listed as 39): 7.791
COC(=O)C(c1ccccc1)N1CCN(c2ccc(NC(=O)c3ccccc3-c3ccc(C(F)(F)F)cc3)cc2)CC1 (stereo not drawn) [Co. No. 40, methyl α-phenyl-4-[4-[[[4′-(trifluoromethyl)[1,1′-biphenyl]-2-yl]carbonyl]amino]phenyl]-1-piperazineacetate] | 4.53 | – | pIC50 ([1]; listed as 40): 7.586
COC(=O)C(c1ccccc1)N1CCN(c2ccc(NC(=O)c3ccccc3-c3ccccc3)cc2)CC1 (stereo not drawn) [Co. No. 52, methyl 4-[4-[([1,1′-biphenyl]-2-ylcarbonyl)amino]phenyl]-α-phenyl-1-piperazineacetate] | – | 294 | melting point: 125 °C
CCNC(=O)C(c1ccccc1)N1CCN(c2ccc(NC(=O)c3ccccc3-c3ccc(C(F)(F)F)cc3)cc2)CC1 (stereo not drawn) [Co. No. 54, N-[4-[4-[2-(ethylamino)-2-oxo-1-phenylethyl]-1-piperazinyl]phenyl]-4′-(trifluoromethyl)-[1,1′-biphenyl]-2-carboxamide] | 5.38 | 7.89 | melting point: 123 °C
CCCNC(=O)C(c1ccccc1)N1CCN(c2ccc(NC(=O)c3ccccc3-c3ccc(C(F)(F)F)cc3)cc2)CC1 (stereo not drawn) [Co. No. 55] | 4.27 | ≤ 30 | –
C=CCNC(=O)C(c1ccccc1)N1CCN(c2ccc(NC(=O)c3ccccc3-c3ccc(C(F)(F)F)cc3)cc2)CC1 (stereo not drawn) [Co. No. 57] | 6.87 | 7.57 | –
CC(C)CNC(=O)C(c1ccccc1)N1CCN(c2ccc(NC(=O)c3ccccc3-c3ccc(C(F)(F)F)cc3)cc2)CC1 (stereo not drawn) [Co. No. 58] | 15.9 | ≤ 30 | –
O=C(Nc1ccc(N2CCN(C(C(=O)NCc3ccccc3)c3ccccc3)CC2)cc1)c1ccccc1-c1ccc(C(F)(F)F)cc1 (stereo not drawn) [Co. No. 61] | 4.79 | 3.85 | –
CCCOC(=O)C(c1ccccc1)N1CCN(c2ccc(NC(=O)c3ccccc3-c3ccc(C(F)(F)F)cc3)cc2)CC1 (stereo not drawn) [Co. No. 62, propyl-phenyl-4-[4-[[[4′-(trifluoromethyl)[1,1′-biphenyl]-2-yl]carbonyl]amino]phenyl]-1-piperazineacetate] | 10.5 | 64.6 | melting point: 151 °C
CCOC(=O)C(CN1CCN(c2ccc(NC(=O)c3ccccc3-c3ccc(C(F)(F)F)cc3)cc2)CC1)c1ccccc1 (stereo not drawn) [Co. No. 81, ethylphenyl-4-[4-[[[4′-(trifluoromethyl)[1,1′-biphenyl]-2-yl]carbonyl]amino]-phenyl]-1-piperazine propanoate] | – | 178 | melting point: 195 °C
CCNC(=O)C(c1ccccc1)C1CCN(c2ccc(NC(=O)c3ccccc3-c3ccc(C(C)(C)C)cc3)cc2)CC1 (stereo not drawn) [Co. No. 87] | 3.2 | 2.05 | –
COC(=O)C(c1ccccc1)C1CCN(c2ccc(NC(=O)c3ccccc3-c3ccc(C(C)(C)C)cc3)cc2)CC1 (stereo not drawn) [Co. No. 203] | 2.08 | – | pIC50 ([1]; listed as 203): 8.333
CCOC(=O)C(c1ccccc1)N1CCC(c2ccc(NC(=O)c3ccccc3-c3ccc(C(F)(F)F)cc3)cc2)CC1 (stereo not drawn) [Co. No. 222] | 8.41 | 19.2 | –
COC(=O)C(c1ccc(Br)cc1)N1CCN(c2ccc(NC(=O)c3ccccc3-c3ccc(C(F)(F)F)cc3)cc2)CC1 (stereo not drawn) [Co. No. 261] | – | 743 | –
CCOC(=O)C(c1ccc(Cl)cc1)N1CCN(c2ccc(NC(=O)c3ccccc3-c3ccc(C(F)(F)F)cc3)cc2)CC1 (stereo not drawn) [Co. No. 262] | – | 558 | –
COC(=O)C(c1ccc(Cl)cc1)N1CCN(c2ccc(NC(=O)c3ccccc3-c3ccc(C(F)(F)F)cc3)cc2)CC1 (stereo not drawn) [Co. No. 263] | – | 279 | –
O=C(Nc1ccc(C2CCN(C(C(=O)OCCc3ccccc3)c3ccccc3)CC2)cc1)c1ccccc1-c1ccc(C(F)(F)F)cc1 (stereo not drawn) [Co. No. 266] | – | 25.6 | –
COC(=O)C(c1ccccc1)N1CCN(c2ccc(NC(=O)c3ccccc3-c3ccsc3)cc2)CC1 (stereo not drawn) [Co. No. 267] | – | – | melting point: 150 °C
COC(=O)C(c1ccccc1)N1CCN(c2ccc(NC(=O)c3ccccc3-c3cccnc3)cc2)CC1 (stereo not drawn) [Co. No. 270] | – | – | melting point: 194 °C
